Entries after “also recorded” stand apart in the source; their conditions may differ. Numbered stars: 1 amine (or outer) side, 2 acyl side, 3 side chain; on linkers, the order of the positions; unused ones are H or OH. Bridge positions count the residues as written; N and C are the ends. Side chains are listed from the residue outwards. Peptide text beside a SMILES is read from it. * marks the point of attachment. X1 = C/C(=N\O)C(C)(C)NCCC(CCNC(C)(C)/C(C)=N/O)CCN*; Glutaryl = O=C(CCCC(=O)[*:2])[*:1]; X2 = NC(=O)COCC(=O)NCCOCCOCCOCCN*
Tests used:
[1] = tested on: fibrogenic livers in BDL model; assay: Liver uptake in BDL vs sham rats at 15 days post-op, vs negative control; assay type: in vivo, rat; conditions: one hour post-injection
Method: On the appropriate day post surgery BDL and sham animals were removed and put under isoflurane anaesthesia, then each animal was injected with 0.3 ml intravenously (i.v.) via tail vein (˜3MBq). At the appropriate time point post-injection of the test item, each animal was re-anaesthetised with isoflurane, sacrificed by cervical dislocation weighed and the weight recorded via a barcode scanning system. Each animal was dissected and the following organs and tissues were removed and counted using BASIL counter protocol 40 or manual counting:
The BDL and sham animal models were set up as described in Example 3. At 15 days post-operatively, one of Compound 3, Compound 8 or a negative control was administered to each animal and liver uptake assessed as described in Example 3.

αv integrin = assay: Liver uptake vs alpha-v integrin expression (ELISA) in BDL rat liver; assay type: in vivo; conditions: BDL animals
Method: The BDL and sham animal models were set up as described in Example 3. At each of 2, 15 and 28 days post-operatively, ˜3 MBq Compound 8 was administered to animals and the liver uptake assessed as described in Example 3.
The expression of αv integrin in the animals' livers was measured in homogenised livers of BDL- and sham-operated animals. At each of 2, 15 and 28 days post-operatively, animals were sacrificed and their livers removed and stored at −70° C.
Pre-weighed livers were removed from −70° C. freezer and placed into pre-cooled mortar and pestle in the presence of low amount of liquid nitrogen. Liver was crushed to almost a homogenous powder (during the crushing of the liver a small amount of liquid nitrogen was added to keep the tissue frozen at all times). […]
The homogenate was transferred into a pre-chilled glass tissue Dounce and three up and down strokes of the pestle were applied at 4° C. […] Relative protein concentration was determined in each sample using a commercial protein assay kit with BSA standards according to the manufacturer's instruction (Pierce, USA) (BSA aliquots should be made in modified RIPA buffer that was used for the homogenisation). Supernatant from each sample was further diluted between 1:50 and 1:200 in H2O and protein concentration was determined using a […] multi-well Plate reader (iEMS). […]

C/C(=N\O)C(C)(C)NCCC(CCNC(=O)CCCC(=O)NCCCC[C@@H]1NC(=O)CSC[C@@H](C(=O)NCCOCCOCCOCCNC(=O)COCC(N)=O)NC(=O)[C@H](Cc2ccccc2)NC(=O)[C@@H]2CSSC[C@H](NC1=O)C(=O)N[C@@H](CCCNC(=N)N)C(=O)NCC(=O)N[C@@H](CC(=O)O)C(=O)N2)CCNC(C)(C)/C(C)=N/O (some centres unmarked) [Compound 8] ({CH2CO}-K([Glutaryl-X1])CRGDCFC-X2; disulfide 2-6; thioether N-8)
Liver retention/uptake in BDL compared to sham animals (in words) [1]: significantly higher liver uptake; also recorded: significantly retained
Correlation of αv integrin expression with liver uptake (in words) (αv integrin): correlation
